Laboratory results from patent EP3046573B1, “AMYLIN ANALOGUES” (Zealand Pharma A/S, priority 2013, dated 2015).
Where two headings read alike, the source gives them in different places. Numbered stars: 1 amine (or outer) side, 2 acyl side, 3 side chain; on linkers, the order of the positions; unused ones are H or OH. Bridge positions count the residues as written; N and C are the ends. Square brackets hold non-standard residues; d marks the D form. Peptide text beside a SMILES is read from it. * marks the point of attachment. C20 diacid = O=C(O)CCCCCCCCCCCCCCCCCCC(=O)*; γGlu = O=C(O)[C@H](CCC(=O)[*:2])N[*:1]; NMeI = CC[C@H](C)[C@H](NC)C(=O)O; Sar = CNCC(=O)O

Tests used:
[1] = target: T1, human calcitonin receptor (hCTR2) (Homo sapiens, UniProt P30988); experiment: hCTR2 assay: induction of cAMP (AlphaScreen cAMP Assay kit) in COS7 cells expressing hCTR2; format: cell-based
T1 construct: expressed in transfected cells
T1 sequence (P30988 25-474): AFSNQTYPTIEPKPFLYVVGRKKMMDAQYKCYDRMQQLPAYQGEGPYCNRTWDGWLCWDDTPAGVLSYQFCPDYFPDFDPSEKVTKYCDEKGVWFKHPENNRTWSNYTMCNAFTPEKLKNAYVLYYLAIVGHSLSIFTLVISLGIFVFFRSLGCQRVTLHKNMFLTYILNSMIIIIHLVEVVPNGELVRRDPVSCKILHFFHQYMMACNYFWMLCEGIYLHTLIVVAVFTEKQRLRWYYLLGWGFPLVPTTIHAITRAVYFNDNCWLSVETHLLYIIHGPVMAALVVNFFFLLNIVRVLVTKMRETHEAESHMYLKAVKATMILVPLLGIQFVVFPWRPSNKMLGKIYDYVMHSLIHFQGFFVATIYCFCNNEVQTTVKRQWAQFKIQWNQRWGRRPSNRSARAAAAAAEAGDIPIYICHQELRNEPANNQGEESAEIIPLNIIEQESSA
Summary of the method: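 COS7 stable hCTR2 clone (RAMP-free); peptide dose-response 15 min 37° C in Tyrode pH 7.4 + 100 µM IBMX + 0.1% casein; lysis 10 min RT; AlphaScreen cAMP; 4PL fit.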

[2] = Solubility assessment (turbidity absorbance at 325 nm); format: physicochemical; conditions: stock 2 mg/ml diluted 1:1, ambient temperature (typically 25°C), n=1; for Solubility, Acetate buffer pH 4: 100 mM acetate buffer pH 4.0; for Solubility, Acetate buffer pH 5: 100 mM acetate buffer pH 5.0; for Solubility, Histidine buffer pH 6: 100 mM histidine buffer pH 6.0; for Solubility, Histidine buffer pH 7: 100 mM histidine buffer pH 7.0; for Solubility, Phosphate buffer pH 6: 100 mM phosphate buffer pH 6.0; for Solubility, Phosphate buffer pH 7: 100 mM phosphate buffer pH 7.0; for Solubility, Phosphate buffer pH 7.5: 100 mM phosphate buffer pH7.5
Summary of the method: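 Stock 2 mg/ml peptide, H2O/HCl pH 2.5; 1:1 into 100 mM buffers: acetate pH 4.0/5.0, His pH 6.0/7.0, phosphate pH 6.0/7.0/7.5. A280 + A325, ~25°C, n=1. Soluble ≥ 1 mg/ml if A325 ≤ 0.02.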

[3] = cAMP induction in COS7 cells expressing hCTR2, average of a minimum of 3 determinations, read-out: hCTR2 EC50

EC50 [1, 3] [nM] | Solubility, Acetate buffer pH 4 [2] | Solubility, Acetate buffer pH 5 [2] | Solubility, Histidine buffer pH 6 [2] | Solubility, Histidine buffer pH 7 [2] | Solubility, Phosphate buffer pH 6 [2] | Solubility, Phosphate buffer pH 7 [2] | Solubility, Phosphate buffer pH 7.5 [2] | SMILES | EC50 [1] [nM]
0.11 | SS (SS indicates solubility ≥ 1mg/ml) | SS (SS indicates solubility ≥ 1mg/ml) | SS (SS indicates solubility ≥ 1mg/ml) | SS (SS indicates solubility ≥ 1mg/ml) | SS (SS indicates solubility ≥ 1mg/ml) | SS (SS indicates solubility ≥ 1mg/ml) | SS (SS indicates solubility ≥ 1mg/ml) | CC[C@H](C)[C@@H](C(=O)N[C@@H](CC(C)C)C(=O)N[C@H](CO)C(=O)N[C@@H](CO)C(=O)N[C@H](C(=O)N[C@@H](CC(N)=O)C(=O)N[C@H](C(=O)NCC(=O)N[C@@H](CO)C(=O)N[C@@H](CC(N)=O)C(=O)N[C@H](C(=O)N1CCC[C@H]1C(N)=O)[C@@H](C)O)C(C)C)[C@@H](C)O)N(C)C(=O)CN(C)C(=O)[C@H](Cc1ccccc1)NC(=O)[C@H](CC(N)=O)NC(=O)[C@H](CC(N)=O)NC(=O)[C@H](CO)NC(=O)[C@H](CO)NC(=O)[C@H](CCCNC(=N)N)NC(=O)[C@H](Cc1c[nH]cn1)NC(=O)[C@H](CC(C)C)NC(=O)[C@H](Cc1ccccc1)NC(=O)[C@H](CCC(=O)O)NC(=O)[C@H](C)NC(=O)[C@H](CC(C)C)NC(=O)[C@H](CCCNC(=N)N)NC(=O)[C@H](CCC(N)=O)NC(=O)[C@@H](NC(=O)[C@H](C)NC(=O)[C@@H]1CSSC[C@H](NC(=O)[C@H](CCCCN)NC(=O)CC[C@H](NC(=O)CCCCCCCCCCCCCCCCCCC(=O)O)C(=O)O)C(=O)N[C@@H](CC(N)=O)C(=O)N[C@@H]([C@@H](C)O)C(=O)N[C@@H](C)C(=O)N[C@@H]([C@@H](C)O)C(=O)N1)[C@@H](C)O [Compound 70, [19CD]-isoGlu-KC()NTATC()ATQRLAEFLHRSSNNF-Gly(Me)-Ile(Me)-L-DSer-STNVGSNTP-NH2] ({C20 diacid-γGlu}-KCNTATCATQRLAEFLHRSSNNF[Sar][NMeI]L[dS]STNVGSNTP-NH2; disulfide 2-7) | 
0.097 | SS (SS indicates solubility ≥ 1mg/ml) | SS (SS indicates solubility ≥ 1mg/ml) | SS (SS indicates solubility ≥ 1mg/ml) | SS (SS indicates solubility ≥ 1mg/ml) | SS (SS indicates solubility ≥ 1mg/ml) | SS (SS indicates solubility ≥ 1mg/ml) | SS (SS indicates solubility ≥ 1mg/ml) | CC[C@H](C)[C@@H](C(=O)N[C@@H](CC(C)C)C(=O)N[C@@H](CO)C(=O)N[C@@H](CO)C(=O)N[C@H](C(=O)N[C@@H](CC(=O)O)C(=O)N[C@H](C(=O)NCC(=O)N[C@@H](CO)C(=O)N[C@@H](CCC(=O)O)C(=O)N[C@H](C(=O)N1CCC[C@H]1C(N)=O)[C@@H](C)O)C(C)C)[C@@H](C)O)N(C)C(=O)[C@H](C)NC(=O)CN(C)C(=O)[C@H](Cc1ccccc1)NC(=O)[C@H](CO)NC(=O)[C@H](CO)NC(=O)[C@H](CO)NC(=O)[C@H](CO)NC(=O)[C@H](CCCNC(=N)N)NC(=O)[C@H](Cc1c[nH]cn1)NC(=O)[C@H](CC(C)C)NC(=O)[C@H](Cc1ccccc1)NC(=O)[C@H](CCC(=O)O)NC(=O)[C@H](C)NC(=O)[C@H](CC(C)C)NC(=O)[C@H](CCCNC(=N)N)NC(=O)[C@H](CCC(N)=O)NC(=O)[C@@H](NC(=O)[C@H](C)NC(=O)[C@@H]1CSSC[C@H](NC(=O)[C@H](CCCNC(=N)N)NC(=O)CC[C@H](NC(=O)CCCCCCCCCCCCCCCCCCC(=O)O)C(=O)O)C(=O)N[C@@H](CC(N)=O)C(=O)N[C@@H]([C@@H](C)O)C(=O)N[C@@H](C)C(=O)N[C@@H]([C@@H](C)O)C(=O)N1)[C@@H](C)O [Compound 74, [19CD]-isoGlu-RC()NTATC()ATQRLAEFLHRSSSSF-Gly(Me)-A-Ile(Me)-LSSTDVGSETP-NH2] ({C20 diacid-γGlu}-RCNTATCATQRLAEFLHRSSSSF[Sar]A[NMeI]LSSTDVGSETP-NH2; disulfide 2-7) | 
0.11 | SS (SS indicates solubility ≥ 1mg/ml) | II (II indicates solubility ≤ 1 mg/ml) | II (II indicates solubility ≤ 1 mg/ml) | SS (SS indicates solubility ≥ 1mg/ml) | SS (SS indicates solubility ≥ 1mg/ml) | SS (SS indicates solubility ≥ 1mg/ml) | SS (SS indicates solubility ≥ 1mg/ml) | CC[C@H](C)[C@@H](C(=O)N[C@@H](CC(C)C)C(=O)N[C@@H](CO)C(=O)N[C@@H](CO)C(=O)N[C@H](C(=O)N[C@@H](CC(=O)O)C(=O)N[C@H](C(=O)NCC(=O)N[C@@H](CO)C(=O)N[C@@H](CCC(=O)O)C(=O)N[C@H](C(=O)N1CCC[C@H]1C(N)=O)[C@@H](C)O)C(C)C)[C@@H](C)O)N(C)C(=O)CN(C)C(=O)[C@H](Cc1ccccc1)NC(=O)[C@H](CO)NC(=O)[C@H](CO)NC(=O)[C@H](CO)NC(=O)[C@H](CO)NC(=O)[C@H](CCCNC(=N)N)NC(=O)[C@H](Cc1c[nH]cn1)NC(=O)[C@H](CC(C)C)NC(=O)[C@H](Cc1ccccc1)NC(=O)[C@H](CCC(=O)O)NC(=O)[C@H](C)NC(=O)[C@H](CC(C)C)NC(=O)[C@H](CCCNC(=N)N)NC(=O)[C@H](CCC(N)=O)NC(=O)[C@@H](NC(=O)[C@H](C)NC(=O)[C@@H]1CSSC[C@H](NC(=O)[C@H](CCCNC(=N)N)NC(=O)CC[C@H](NC(=O)CCCCCCCCCCCCCCCCCCC(=O)O)C(=O)O)C(=O)N[C@@H](CC(N)=O)C(=O)N[C@@H]([C@@H](C)O)C(=O)N[C@@H](C)C(=O)N[C@@H]([C@@H](C)O)C(=O)N1)[C@@H](C)O [Compound 75, [19CD]-isoGlu-RC()NTATC()ATQRLAEFLHRSSSSF-Gly(Me)-Ile(Me)-LSSTDVGSETP-NH2] ({C20 diacid-γGlu}-RCNTATCATQRLAEFLHRSSSSF[Sar][NMeI]LSSTDVGSETP-NH2; disulfide 2-7) | 

SMILES | EC50 [1, 3] [nM] | Solubility, Acetate buffer pH 4 [2] | Solubility, Acetate buffer pH 5 [2] | Solubility, Histidine buffer pH 6 [2] | Solubility, Histidine buffer pH 7 [2] | Solubility, Phosphate buffer pH 6 [2] | Solubility, Phosphate buffer pH 7 [2] | Solubility, Phosphate buffer pH 7.5 [2] | EC50 [1] [nM]
CC[C@H](C)[C@@H](C(=O)N[C@@H](CC(C)C)C(=O)N[C@@H](CO)C(=O)N[C@@H](CO)C(=O)N[C@H](C(=O)N[C@@H](CC(N)=O)C(=O)N[C@H](C(=O)NCC(=O)N[C@@H](CO)C(=O)N[C@@H](CC(N)=O)C(=O)N[C@H](C(=O)N1CCC[C@H]1C(N)=O)[C@@H](C)O)C(C)C)[C@@H](C)O)N(C)C(=O)[C@H](C)NC(=O)CN(C)C(=O)[C@@H](Cc1ccccc1)NC(=O)[C@H](CC(N)=O)NC(=O)[C@H](CC(N)=O)NC(=O)[C@H](CO)NC(=O)[C@H](CO)NC(=O)[C@H](CCCNC(=N)N)NC(=O)[C@H](Cc1c[nH]cn1)NC(=O)[C@H](CC(C)C)NC(=O)[C@H](Cc1ccccc1)NC(=O)[C@H](CCC(=O)O)NC(=O)[C@H](C)NC(=O)[C@H](CC(C)C)NC(=O)[C@H](CCCNC(=N)N)NC(=O)[C@H](CCC(N)=O)NC(=O)[C@@H](NC(=O)[C@H](C)NC(=O)[C@@H]1CSSC[C@H](NC(=O)[C@H](CCCCN)NC(=O)CC[C@H](NC(=O)CCCCCCCCCCCCCCCCCCC(=O)O)C(=O)O)C(=O)N[C@@H](CC(N)=O)C(=O)N[C@@H]([C@@H](C)O)C(=O)N[C@@H](C)C(=O)N[C@@H]([C@@H](C)O)C(=O)N1)[C@@H](C)O [Compound 71, [19CD]-isoGlu-KC()NTATC()ATQRLAEFLHRSSNN-DPhe-Gly(Me)-A-Ile(Me)-LSSTNVGSNTP-NH2] ({C20 diacid-γGlu}-KCNTATCATQRLAEFLHRSSNN[dF][Sar]A[NMeI]LSSTNVGSNTP-NH2; disulfide 2-7) |  | SS (SS indicates solubility ≥ 1mg/ml) | SS (SS indicates solubility ≥ 1mg/ml) | SS (SS indicates solubility ≥ 1mg/ml) | SS (SS indicates solubility ≥ 1mg/ml) | SS (SS indicates solubility ≥ 1mg/ml) | SS (SS indicates solubility ≥ 1mg/ml) | SS (SS indicates solubility ≥ 1mg/ml) | 0.068
